# Reference: patent US20170253607A1, “LONG-ACTING HIV PROTEASE INHIBITOR” (Shionogi & Co., Ltd., priority 2014, published 2017)
# pIC50: −log10 of the molar value.
# Target: HIV-1 PR (Human immunodeficiency virus type 1 group M subtype B, UniProt P04585)
# Experiment: HIV-protease inhibitory activity assay (FRET peptide substrate)
# Type: biochemical
# Conditions: Test Example 1
# Procedure, shortened: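 Compounds were preincubated with HIV-1 PR (0.83 ng) at room temperature in pH 4.8 NaAc buffer (0.5 M NaCl, EDTA, DTT, Tween 20), then HiLyte Fluor 488/QXL 520 FRET peptide (2 μmol/L final) was added for 60 min. Fluorescence was read at 485/535 nm, and IC50 was fitted by four-parameter logistic regression.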
row,Compound,pIC50
1,COc1ccc(S(=O)(=O)N(CC(C)C)CC(O)C(Cc2ccc(N(Cc3ccccc3-c3sc4c(c3C(=O)O)CC(C)(C)CC4)CC3CCCC3)cc2)NC(=O)OC2COC3(C)OCCC23)cc1 (centres unmarked) [Compound I-456],7.87
2,COc1ccc(S(=O)(=O)N(CC(C)C)CC(O)C(Cc2ccc(OCC3CCN(c4cccc(-c5sc6c(c5C(=O)O)CC(C)(C)CC6)c4)C3)cc2)NC(=O)OC2COC3(C)OCCC23)cc1 (centres unmarked) [Compound I-896],7.78
3,COc1ccc(S(=O)(=O)N(CC(C)C)CC(O)C(Cc2ccc(N3CC4CC(Oc5ccccc5-c5sc6c(c5C(=O)O)CC(C)(C)CC6)CC4C3)cc2)NC(=O)OC2COC3(C)OCCC23)cc1 (centres unmarked) [Compound I-508],8.07
4,COc1ccc(S(=O)(=O)N(CC(C)C)CC(O)C(Cc2ccc(N(Cc3ccccc3-c3sc4c(c3C(=O)O)CC(C)(C)CC4)CC3CCC3)cc2)NC(=O)OC2COC3(C)OCCC23)cc1 (centres unmarked) [Compound I-463],8.29
5,COc1ccc(S(=O)(=O)N(CC(C)C)CC(O)C(Cc2ccc(NCc3cccc(-c4ccccc4)c3-c3sc4c(c3C(=O)O)CC(C)(C)CC4)cc2)NC(=O)OC2COC3(C)OCCC23)cc1 (centres unmarked) [Compound I-529],8.30
6,COc1ccc(S(=O)(=O)N(CC(C)C)CC(O)C(Cc2ccc(NCc3nc(N4CCC4)sc3-c3sc4c(c3C(=O)O)CC(C)(C)CC4)cc2)NC(=O)OC2COC3(C)OCCC23)cc1 (centres unmarked) [Compound I-753],8.62
7,COc1ccc(S(=O)(=O)N(CC(C)C)CC(O)C(Cc2ccc(C3=CCC(c4sc5c(c4C(=O)O)CC(C)(C)CC5)CC3)cc2)NC(=O)OC2COC3(C)OCCC23)cc1 (centres unmarked) [Compound I-202],7.92
8,COc1ccc(S(=O)(=O)N(CC(C)C)CC(O)C(Cc2ccc(NCC3=C(c4sc5c(c4C(=O)O)CC(C)(C)CC5)CCC(F)(F)C3)cc2)NC(=O)OC2COC3(C)OCCC23)cc1 (centres unmarked) [Compound I-705],8.31
9,COc1ccc(S(=O)(=O)N(CC(C)C)CC(O)C(Cc2ccc(CN(C)c3ccccc3-c3sc4c(c3C(=O)O)CC(C)(C)CC4)cc2)NC(=O)OC2COC3(C)OCCC23)cc1 (centres unmarked) [Compound I-249],8.65
10,COc1ccc(S(=O)(=O)N(CC(C)C)CC(O)C(Cc2ccc(NCc3ccc(-c4sc5c(c4C(=O)O)CC(C)(C)CC5)cn3)cc2)NC(=O)OC2COC3(C)OCCC23)cc1 (centres unmarked) [Compound I-290],8.68
11,CC(C)CN(CC(O)C(Cc1ccc(CCc2sc3c(c2C(=O)O)CC(C)(C)CC3)cc1)NC(=O)OC1COC2(C)OCCC12)S(=O)(=O)c1ccc2ncsc2c1 (centres unmarked) [Compound I-107],8.63
12,COc1ccc(S(=O)(=O)N(CC(C)C)CC(O)C(Cc2ccc(OC3CN(c4cccc(-c5sc6c(c5C(=O)O)CC(C)(C)CC6)c4)C3)cc2)NC(=O)OC2COC3(C)OCCC23)cc1 (centres unmarked) [Compound I-360],8.34
13,COc1ccc(S(=O)(=O)N(CC(C)C)CC(O)C(Cc2ccc(NCC3=C(c4sc5c(c4C(=O)O)CC(C)(C)CC5)CN(C(=O)O)C3)cc2)NC(=O)OC2COC3(C)OCCC23)cc1 (centres unmarked) [Compound I-402],8.72
14,COc1ccc(S(=O)(=O)N(CC(C)C)CC(O)C(Cc2ccc(NCc3ccc(-c4ccc(-c5sc6c(c5C(=O)O)CC(C)(C)CC6)cc4)cc3)cc2)NC(=O)OC2COC3(C)OCCC23)cc1 (centres unmarked) [Compound I-285],8.11
15,COc1ccc(S(=O)(=O)N(CC(C)C)CC(O)C(Cc2ccc(NCc3ccccc3-n3nc4c(c3C(=O)O)CC3(CCCC3)CC4)cc2)NC(=O)OC2COC3(C)OCCC23)cc1 (centres unmarked) [Compound I-38],8.41
16,COc1ccc(S(=O)(=O)N(CC(C)C)CC(O)C(Cc2ccc(OCc3ccccc3-c3ccc(-n4nc(C(=O)O)c5c4CCC(C)(C)C5)cc3)cc2)NC(=O)OC2COC3(C)OCCC23)cc1 (centres unmarked) [Compound I-302],8.64
17,CC(C)CN(CC(O)C(Cc1ccc(NCc2ccccc2-c2sc3c(c2C(=O)O)CC(C)(C)CC3)cc1)NC(=O)OC1COC2(C)OCCC12)S(=O)(=O)c1ccc(N)cc1 (centres unmarked) [Compound I-476],8.70
18,COc1ccc(S(=O)(=O)N(CC(C)C)CC(O)C(Cc2ccc(OCc3ccccc3-c3ccc4c(c3C(=O)O)CC(C)(C)CC4)cc2)NC(=O)OC2COC3(C)OCCC23)cc1 (centres unmarked) [Compound I-40],8.72
19,COc1ccc(S(=O)(=O)N(CC(C)C)CC(O)C(Cc2ccc(N(C)CC3COCCC3c3sc4c(c3C(=O)O)CC(C)(C)CC4)cc2)NC(=O)OC2COC3(C)OCCC23)cc1 (centres unmarked) [Compound I-401],8.75
20,COc1ccc(S(=O)(=O)N(CC(C)C)CC(O)C(Cc2ccc(NCC3CCCCN3C(=O)c3sc4c(c3C(=O)O)CC(C)(C)CC4)cc2)NC(=O)OC2COC3(C)OCCC23)cc1 (centres unmarked) [Compound I-605],8.71
21,COc1ccc(S(=O)(=O)N(CC(C)C)CC(O)C(Cc2ccc(CNC(=O)c3cc(-c4ccc(F)cc4F)ccc3O)cc2)NC(=O)OC2COC3OCCC23)cc1 (centres unmarked) [Compound I-817],8.81
22,COc1ccc(S(=O)(=O)N(CC(C)C)CC(O)C(Cc2ccc(OCc3ncsc3-c3ccc(-c4sc5c(c4C(=O)O)CC(C)(C)CC5)cc3)cc2)NC(=O)OC2COC3(C)OCCC23)cc1 (centres unmarked) [Compound I-111],8.83

row,Compound,pIC50
1,COc1ccc(S(=O)(=O)N(CC(C)C)CC(O)C(Cc2ccc(N(Cc3cccnc3)Cc3ccccc3-c3sc4c(c3C(=O)O)CC(C)(C)CC4)cc2)NC(=O)OC2COC3(C)OCCC23)cc1 (centres unmarked) [Compound I-423],8.55
2,COc1ccc(S(=O)(=O)N(CC(C)C)CC(O)C(Cc2ccc(NCC3CC(C)(C)CC3c3sc4c(c3C(=O)O)CC(C)(C)CC4)cc2)NC(=O)OC2COC3(C)OCCC23)cc1 (centres unmarked) [Compound I-735],8.81
3,COc1ccc(S(=O)(=O)N(CC(C)C)CC(O)C(Cc2ccc(NCc3cnc4ccc(-c5sc6c(c5C(=O)O)CC(C)(C)CC6)cn34)cc2)NC(=O)OC2COC3(C)OCCC23)cc1 (centres unmarked) [Compound I-286],8.69
4,COc1ccc(S(=O)(=O)N(CC(C)C)CC(O)C(Cc2ccc(N(C)Cc3nc(N4CCN(C)CC4)sc3-c3sc4c(c3C(=O)O)CC(C)(C)CC4)cc2)NC(=O)OC2COC3(C)OCCC23)cc1 (centres unmarked) [Compound I-758],8.79
5,CCN(C(=O)Nc1ccccc1-c1sc2c(c1C(=O)O)CC(C)(C)CC2)c1ccc(CC(NC(=O)OC2COC3(C)OCCC23)C(O)CN(CC(C)C)S(=O)(=O)c2ccc(OC)cc2)cc1 (centres unmarked) [Compound I-377],8.27
6,COc1ccc(S(=O)(=O)N(CC(C)C)CC(O)C(Cc2ccc(N3CCC(Oc4ccc(-c5sc6c(c5C(=O)O)CC(C)(C)CC6)cc4)C3)cc2)NC(=O)OC2COC3(C)OCCC23)cc1 (centres unmarked) [Compound I-350],8.27
7,COc1ccc(S(=O)(=O)N(CC(C)C)CC(O)C(Cc2ccc(N(C)CC3CC(C)(C)CCC3c3sc4c(c3C(=O)O)CC(C)(C)CC4)cc2)NC(=O)OC2COC3(C)OCCC23)cc1 (centres unmarked) [Compound I-769],8.22
8,COc1ccc(S(=O)(=O)N(CC(C)C)CC(O)C(Cc2ccc(N(C)Cc3ncccc3-c3ccccc3-c3sc4c(c3C(=O)O)CC(C)(C)CC4)cc2)NC(=O)OC2COC3(C)OCCC23)cc1 (centres unmarked) [Compound I-477],8.70
9,COc1ccc(S(=O)(=O)N(CC(C)C)CC(O)C(Cc2ccc(N3CCC(Cc4ccccc4-c4sc5c(c4C(=O)O)CC(C)(C)CC5)C3)cc2)NC(=O)OC2COC3(C)OCCC23)cc1 (centres unmarked) [Compound I-667],8.10
10,COc1ccc(S(=O)(=O)N(CC(C)C)CC(O)C(Cc2ccc(NCc3ccccc3-c3c(C(=O)O)cnc4ccc(OC)cc34)cc2)NC(=O)OC2COC3(C)OCCC23)cc1 (centres unmarked) [Compound I-500],8.75
11,COc1ccc(S(=O)(=O)N(CC(C)C)CC(O)C(Cc2ccc(NCc3ccc(CCC(=O)Nc4sc5c(c4C(=O)O)CC(C)(C)CC5)cc3)cc2)NC(=O)OC2COC3(C)OCCC23)cc1 (centres unmarked) [Compound I-439],8.46
12,COc1ccc(S(=O)(=O)N(CC(C)C)CC(O)C(Cc2ccc(NCc3ccc(-c4sc5c(c4C(=O)O)CC(C)(C)CC5)c4ccccc34)cc2)NC(=O)OC2COC3(C)OCCC23)cc1 (centres unmarked) [Compound I-322],7.98
13,COc1ccc(S(=O)(=O)N(CC(C)C)CC(O)C(Cc2ccc(N(C)Cc3cc(OC(F)(F)F)ccc3-c3sc4c(c3C(=O)O)CC(C)(C)CC4)cc2)NC(=O)OC2COC3(C)OCCC23)cc1 (centres unmarked) [Compound I-699],7.99
14,COc1ccc(S(=O)(=O)N(CC(C)C)CC(O)C(Cc2ccc(NCc3cc(OC)cc(-c4sc5c(c4C(=O)O)CC(C)(C)CC5)c3OC)cc2)NC(=O)OC2COC3(C)OCCC23)cc1 (centres unmarked) [Compound I-553],8.72
15,CCCCC1(Cc2ccc(COc3ccc(CC(NC(=O)OC4COC5(C)OCCC45)C(O)CN(CC(C)C)S(=O)(=O)c4ccc(OC)cc4)cc3)cc2)C(=O)N(c2ccccc2)N(c2ccccc2)C1=O (centres unmarked) [Compound I-76],8.87
16,COc1ccc(S(=O)(=O)N(CC(C)C)CC(O)C(Cc2ccc(NCc3cc(OC)ccc3C(=O)Nc3sc4c(c3C(=O)O)CC(C)(C)CC4)cc2)NC(=O)OC2COC3(C)OCCC23)cc1 (centres unmarked) [Compound I-732],8.49
17,COc1ccc(S(=O)(=O)N(CC2CCC2)CC(O)C(Cc2ccc(NCc3ccccc3C(=O)Nc3sc4c(c3C(=O)O)CC(C)(C)CC4)cc2)NC(=O)OC2COC3(C)OCCC23O)cc1 (centres unmarked) [Compound I-893],8.23
18,COc1ccc(S(=O)(=O)N(CC2CCC(=O)N2)CC(O)C(Cc2ccc(OCc3ccccc3-c3sc4c(c3C(=O)O)CC(C)(C)CC4)cc2)NC(=O)OC2COC3OCCC23)cc1 (centres unmarked) [Compound I-838],9.12
19,COc1ccc(S(=O)(=O)N(CC(C)C)CC(O)C(Cc2ccc(OCc3ccccc3-c3ccc4c(c3)C(=O)C(c3ccc(F)cc3)C4=O)cc2)NC(=O)OC2COC3(C)OCCC23)cc1 (centres unmarked) [Compound I-70],8.97
20,COc1ccc(S(=O)(=O)N(CC(C)C)CC(O)C(Cc2ccc(NCc3ccc(-c4sc5c(c4C(=O)O)CC(C)(C)CC5)c(F)c3)cc2)NC(=O)OC2COC3(C)OCCC23)cc1 (centres unmarked) [Compound I-291],8.45
21,COc1ccc(S(=O)(=O)N(CC(C)C)CC(O)C(Cc2ccc(NCc3cccc(-c4sc5c(c4C(=O)O)CC(C)(C)CC5)c3)cc2)NC(=O)OC2COC3(C)OCCC23)cc1 (centres unmarked) [Compound I-254],8.58
22,COc1ccc(S(=O)(=O)N(CC2CCCC2)CC(O)C(Cc2ccc(OCc3nn(C)cc3-c3sc4c(c3C(=O)O)CC(C)(C)CC4)cc2)NC(=O)OC2COC3(C)OCCC23)cc1 (centres unmarked) [Compound I-199],8.63
